# System: IKZF1, ASS1 and SALL4 recruitment to CRBN
# Assay: Recruitment assessment: recruitment of any tested substrate from among IKZF1, ASS1 and SALL4
# Assay type: cell-based
# Settings: any tested substrate at any tested compound concentration
# Procedure: In this experimental set-up, cells were transfected with a construct encoding a CRBN-fusion protein and another one encoding a substrate-fusion protein. Test compound activity was assessed with increasing concentrations of test compounds (dose-response studies) to monitor the ability to promote CRBN-ligand-induced protein interaction.
# Full size proteins were fused for each of the target proteins tested, except in the case of IKZF1 where isoform 7 was used. For the study, the following were used: IKZF1 recruitment: pSEL-CRBN+pMG1-IKZF1(isoform 7); ASS1 recruitment: pSEL-CRBN+pMG1-ASS1. SALL4 recruitment: pSEL-SALL4+pMG1-CRBN. […] Luciferase activity was measured 24 hours after test compound treatment using the Luciferase Assay System kit (PROMEGA, Madison, Wis.) with an Ensight plate reader (PERKIN ELMER LIFE SCIENCES, Waltham, Mass.). Data points depicted fold induction of the average luciferase activity of triplicate samples from EPO+test compound treated cells versus EPO only treated cells. Error bars represent standard deviations. Curves were fit using 4-parameter nonlinear regression in […] PRISM software.
row,SMILES,Recruitment Assessment
1,"O=C1CCC(N2Cc3ccccc3C2=O)C(=O)N1 (single isomer, unassigned) [5′-OH-THL, 3-(1-oxoisoindolin-2-yl)piperidine-2,6-dione, reference compound]",FALSE
2,O=C1N=c2ccc(NC(=O)NCc3ccccc3)cc2=N1 [1-benzyl-3-(2-oxobenzimidazol-5-yl)urea],FALSE
3,"O=C(O)CNc1cccc2c1CN(C1CCC(=O)NC1=O)C2=O (stereo not shown) [2-[[2-(2,6-dioxo-3-piperidyl)-1-oxo-isoindolin-4-yl]amino]acetic acid]",FALSE
4,"O=C1CCC(N2C(=O)c3ccccc3C2OCc2ccccc2)C(=O)N1 (stereo not shown) [3-(1-benzyloxy-3-oxo-isoindolin-2-yl)piperidine-2,6-dione]",FALSE
5,"O=C1CCC(N2Cc3ccccc3C2=O)C(=O)N1 (stereo not shown) [3-(1-oxoisoindolin-2-yl)piperidine-2,6-dione]",TRUE
6,"Nc1cccc2c1C(=O)N(C1CCC(=O)NC1=O)C2 (stereo not shown) [3-(7-amino-1-oxo-isoindolin-2-yl)piperidine-2,6-dione]",TRUE
7,"O=C1CCC(N2C(=O)c3ccccc3C2OC2CCCCC2)C(=O)N1 (stereo not shown) [3-[1-(cyclohexoxy)-3-oxo-isoindolin-2-yl]piperidine-2,6-dione]",FALSE
8,"O=C1CCC(N2C(=O)c3ccccc3C2Nc2ccccc2)C(=O)N1 (stereo not shown) [C10537, 3-(1-anilino-3-oxo-isoindolin-2-yl)piperidine-2,6-dione]",FALSE
9,COc1ccc(C2c3ccccc3C(=O)N2C2CCC(=O)NC2=O)cc1 (stereo not shown) [C11892],FALSE
10,"O=C1CCC(N2Cc3ccc(NCC(=O)N4CCCCC4)cc3C2=O)C(=O)N1 (stereo not shown) [C12581, 3-[1-oxo-6-[[2-oxo-2-(1-piperidyl)ethyl]amino]isoindolin-2-yl]piperidine-2,6-dione]",FALSE
11,"CC1CCN(C(=O)CNc2ccc3c(c2)C(=O)N(C2CCC(=O)NC2=O)C3)CC1 (stereo not shown) [C12582, 3-[6-[[2-(4-methyl-1-piperidyl)-2-oxo-ethyl]amino]-1-oxo-isoindolin-2-yl]piperidine-2,6-dione]",FALSE
12,"CC1CCCN(C(=O)CNc2ccc3c(c2)C(=O)N(C2CCC(=O)NC2=O)C3)C1 (stereo not shown) [C12583, 3-[6-[[2-(3-methyl-1-piperidyl)-2-oxo-ethyl]amino]-1-oxo-isoindolin-2-yl]piperidine-2,6-dione]",FALSE
13,"CC1CCCCN1C(=O)CNc1ccc2c(c1)C(=O)N(C1CCC(=O)NC1=O)C2 (stereo not shown) [C12584, 3-[6-[[2-(2-methyl-1-piperidyl)-2-oxo-ethyl]amino]-1-oxo-isoindolin-2-yl]piperidine-2,6-dione]",FALSE
14,"CC1CN(C(=O)CNc2ccc3c(c2)C(=O)N(C2CCC(=O)NC2=O)C3)CCO1 (stereo not shown) [C12586, 3-[6-[[2-(2-methylmorpholin-4-yl)-2-oxo-ethyl]amino]-1-oxo-isoindolin-2-yl]piperidine-2,6-dione]",FALSE
15,"O=C1CCC(N2Cc3ccc(NCC(=O)N4CC5CC4CO5)cc3C2=O)C(=O)N1 (stereo not shown) [C12589, 3-[6-[[2-(2-oxa-5-azabicyclo[2.1.1]heptan-5-yl)-2-oxo-ethyl]amino]-1-oxo-isoindolin-2-yl]piperidine]",FALSE
16,"CC1CN(C)CCN1C(=O)CNc1ccc2c(c1)C(=O)N(C1CCC(=O)NC1=O)C2 (stereo not shown) [C12595, 3-[6-[[2-(2,4-dimethylpiperazin-1-yl)-2-oxo-ethyl]amino]-1-oxo-isoindolin-2-yl]piperidine-2,6-dione]",FALSE
17,"CN1CCN(C(=O)CNc2ccc3c(c2)C(=O)N(C2CCC(=O)NC2=O)C3)CC1=O (stereo not shown) [C12597, 3-[6-[[2-(4-methyl-3-oxo-piperazin-1-yl)-2-oxo-ethyl]amino]-1-oxo-isoindolin-2-yl]piperidine-2,6-dione]",FALSE

row,SMILES,Recruitment Assessment
1,"CC1CN(C(=O)CNc2ccc3c(c2)C(=O)N(C2CCC(=O)NC2=O)C3)CC(=O)N1 (stereo not shown) [C12598, 3-[6-[[2-(3-methyl-5-oxo-piperazin-1-yl)-2-oxo-ethyl]amino]-1-oxo-isoindolin-2-yl]piperidine-2,6-dione]",FALSE
2,"CC1CC(NC(=O)CNc2ccc3c(c2)C(=O)N(C2CCC(=O)NC2=O)C3)CCO1 (stereo not shown) [C12695, 2-[[2-(2,6-dioxo-3-piperidyl)-3-oxo-isoindolin-5-yl]amino]-N-(2-methyltetrahydropyran-4-yl)acetamide]",FALSE
3,"CC1CCCN(C(=O)CNc2ccc3c(c2)C(=O)N(C2CCC(=O)NC2=O)C3)CC1 (stereo not shown) [C12697, 3-[6-[[2-(4-methylazepan-1-yl)-2-oxo-ethyl]amino]-1-oxo-isoindolin-2-yl]piperidine-2,6-dione]",FALSE
4,"O=C1CCC(N2C(=O)CCC2=O)C(=O)N1 (stereo not shown) [C14950, 3-(2,5-dioxopyrrolidin-1-yl)piperidine-2,6-dione]",FALSE
5,"O=C1Cc2ccccc2C(=O)N1 [C15352, 4H-isoquinoline-1,3-dione]",FALSE
6,"O=C1c2ccccc2CC1n1ccc(=O)[nH]c1=O (stereo not shown) [C16899, 1-(1-oxoindan-2-yl)pyrimidine-2,4-dione]",FALSE
7,"CNC(=O)Nc1cccc2c1CN(C1CCC(=O)NC1=O)C2=O (stereo not shown) [C22594, 1-[2-(2,6-dioxo-3-piperidyl)-1-oxo-isoindolin-4-yl]-3-methyl-urea]",TRUE
8,"O=C1CCC(CN2C(=O)c3ccccc3C2=O)C(=O)N1 (stereo not shown) [C23258, 2-[(2,6-dioxo-3-piperidyl)methyl]isoindoline-1,3-dione]",FALSE
9,"Cc1cccc2c1C(=O)N(C1CCC(=O)NC1=O)C2 (stereo not shown) [C28661, 3-(7-methyl-1-oxo-isoindolin-2-yl)piperidine-2,6-dione]",FALSE
10,"O=C1CCC(N2Cc3cc(O)ccc3C2=O)C(=O)N1 (stereo not shown) [C28891, 3-(5-hydroxy-1-oxo-isoindolin-2-yl)piperidine-2,6-dione]",TRUE
11,"O=C1CCC(N2Cc3ccc(O)cc3C2=O)C(=O)N1 (stereo not shown) [C28928, 3-(6-hydroxy-1-oxo-isoindolin-2-yl)piperidine-2,6-dione]",TRUE
12,"O=C1CCC(N2Cc3cccc(O)c3C2=O)C(=O)N1 (stereo not shown) [C28973, 3-(7-hydroxy-1-oxo-isoindolin-2-yl)piperidine-2,6-dione]",TRUE
13,"COc1cccc2c1C(=O)N(C1CCC(=O)NC1=O)C2 (stereo not shown) [C29137, 3-(7-methoxy-1-oxo-isoindolin-2-yl)piperidine-2,6-dione]",FALSE
14,"CC(=O)Nc1cccc2c1CN(C1CCC(=O)NC1=O)C2=O (stereo not shown) [C29330, N-[2-(2,6-dioxo-3-piperidyl)-1-oxo-isoindolin-4-yl]acetamide]",TRUE
15,"CC(=O)Nc1ccc2c(c1)C(=O)N(C1CCC(=O)NC1=O)C2 (stereo not shown) [C29408, N-[2-(2,6-dioxo-3-piperidyl)-3-oxo-isoindolin-5-yl]acetamide]",FALSE
16,"CC(=O)Nc1cccc2c1C(=O)N(C1CCC(=O)NC1=O)C2 (stereo not shown) [C29457, N-[2-(2,6-dioxo-3-piperidyl)-3-oxo-isoindolin-4-yl]acetamide]",TRUE
17,"NC(=O)Nc1cccc2c1CN(C1CCC(=O)NC1=O)C2=O (stereo not shown) [C29490, [2-(2,6-dioxo-3-piperidyl)-1-oxo-isoindolin-4-yl]urea]",TRUE

# Reference: patent US20230111853A1, “COMPOUNDS MODULATING PROTEIN RECRUITMENT AND/OR DEGRADATION” (Orionis Biosciences, Inc., priority 2019, published 2023)
